Measured values as given in the NIST ThermoML archive (doi:10.1021/je060150a).

Tests used:
[1] = Liquid; for mass density / viscosity: 101 kPa
[2] = refractive index (Na D-line) (dimensionless); conditions: 101.33 kPa, Liquid, Standard Abbe refractometry
[3] = xn = mol fraction of the nth substance listed; conditions: 101 kPa, Liquid

CCC(C)=O [butanone]
Conditions	mass density, [1] [kg/m3]	refractive index, [2]	vapor or sublimation pressure, [1] [kPa]	viscosity, [1] [mPa·s]
283.15 K	815.9	1.384	–	0.472
293.15 K	805.5	1.37888	–	0.423
303.15 K	795.1	1.37383	15.74	0.382
313.15 K	784.3	1.36856	–	0.347

CCC(C)=O [butanone] + ClC(Cl)Cl
[3], x2 = 0
Conditions	mass density [kg/m3]	viscosity [mPa·s]
283.15 K	815.9	0.472
293.15 K	805.5	0.423
303.15 K	795.1	0.382
313.15 K	784.3	0.347

ClC(Cl)Cl [trichloromethane]
Conditions	mass density, [1] [kg/m3]	refractive index, [2]	vapor or sublimation pressure, [1] [kPa]	viscosity, [1] [mPa·s]
283.15 K	1507.3	1.45189	–	0.629
293.15 K	1488.4	1.44589	–	0.573
303.15 K	1469.4	1.43987	32.19	0.516
313.15 K	1450	1.43386	–	0.468

ClC(Cl)Cl [trichloromethane] + CCC(C)=O
[3]
Conditions	mass density, 283.15 K [kg/m3]	mass density, 293.15 K [kg/m3]	mass density, 303.15 K [kg/m3]	mass density, 313.15 K [kg/m3]	viscosity, 283.15 K [mPa·s]	viscosity, 293.15 K [mPa·s]	viscosity, 303.15 K [mPa·s]	viscosity, 313.15 K [mPa·s]
x1 = 0.0906	872.7	861.7	850.7	839.3	0.528	0.475	0.419	0.385
x1 = 0.1806	930.4	918.7	907.1	895.1	0.588	0.526	0.468	0.42
x1 = 0.272	990.2	977.9	965.6	952.9	0.627	0.556	0.499	0.451
x1 = 0.3661	1053.3	1040.2	1027.2	1013.7	0.66	0.594	0.53	0.477
x1 = 0.4551	1113.9	1100.2	1086.4	1072.3	0.692	0.62	0.553	0.498
x1 = 0.549	1179.5	1165	1150.5	1135.5	0.711	0.633	0.565	0.51
x1 = 0.633	1238.9	1223.7	1208.5	1192.7	0.712	0.636	0.571	0.515
x1 = 0.7035	1289.3	1273.6	1257.7	1241.3	0.717	0.631	0.566	0.513
x1 = 0.7973	1357.5	1340.7	1323.9	1306.6	0.701	0.63	0.566	0.51
x1 = 0.9068	1437.7	1419.8	1401.8	1383.4	0.674	0.61	0.546	0.491
x1 = 1	1507.3	1488.4	1469.4	1450	0.629	0.573	0.516	0.468
